# Experimental data published in paper PMC10453766, “Comparison of the Effects of DOTA and NOTA Chelators on ^64Cu-Cudotadipep and ^64Cu-Cunotadipep for Prostate Cancer” (Diagnostics, 2023).
# Experiments:
# PC3-PIP (PSMA+) cells = assay: Cell uptake in PC3-PIP cells; format: cell-based, human; conditions: PC3-PIP cells, 1 × 10^6 cells, 3.7 MBq, 2 h, 37 °C
# Method: (§1) PC3-PIP or PC3-flu cells (1 × 10^6) were mixed with 3.7 MBq (100 μCi) of ^64Cu-cudotadipep or ^64Cu-cunotadipep and incubated at 37 °C and 5% CO2 for 2 h. Following incubation, the cells were washed with PBS twice and collected via centrifugation (2000 rpm, 5 min). Radioactivity was measured using 2480 WIZARD2 gamma counter (Perkin Elmer, Waltham, MA, USA). Percent (%) uptake was calculated using the ratio between the radioactivity of the cells and treated radioactivity.
# PC3-flu (PSMA−) cells = assay: Cell uptake in PC3-flu cells; format: cell-based, human; conditions: 1 × 10^6 cells, 3.7 MBq, 2 h, 37 °C
# Method: as §1
# [1] = Serum stability in human serum (radio-TLC); format: in vitro ADME; conditions: 37 °C, 2, 24 and 48 h
# Method: (§2) The serum stabilities of ^64Cu-cudotadipep and ^64Cu-cunotadipep were evaluated in human and mouse sera for 48 h. Briefly, 10 µL ^64Cu-cudotadipep (3.7 MBq) or […] (3.7 MBq) was mixed with 90 µL human or mouse serum and then incubated at 37 °C for 48 h. At each time point (2, 24, and 48 h), a 10 µL sample was removed, mixed with 100 µL distilled water, filtered through a 0.22 µm membrane filter, and then analyzed using radio-thin layer chromatography (TLC eluent condition: 1 M NH4OAc:MeOH = 1:1). The radio-TLCs were performed using a radio-TLC imaging scanner (BioScan, Washington, DC, USA) for radiodetection.
# [2] = Serum stability in mouse serum (radio-TLC); format: in vitro ADME; conditions: 37 °C, 2, 24 and 48 h
# Method: as §2
# [3] = Biodistribution in normal BALB/c mice; format: in vivo, mouse; conditions: tail vein
# Method: (§3) Approximately 0.93 MBq ^64Cu-cudotadipep or ^64Cu-cunotadipep was injected via the tail vein into normal BALB/c mice or PC3-PIP tumor-bearing nude mice (n = 5/group). Normal and tumor-bearing mice were euthanized at 2, 6, 24, and 48 h following injection. Tumor and normal tissues were excised and weighed, and their radioactivity was measured using a gamma counter (2480 WIZARD2 gamma counter, Perkin Elmer, Waltham, MA, USA). The radioactivity measured in each tissue was expressed as a percentage of the injected dose per gram of tissue (%ID/g).
# PC3-PIP tumor xenograft = assay: Biodistribution in PC3-PIP tumor-bearing nude mice; format: in vivo, mouse; conditions: tail vein
# Method: All animal experiments followed the procedures approved by the Institutional Animal Care and Use Committee of Korea Institute of Radiological & Medical Sciences (approval No. KIRAMS2021-0044). Male BALB/c mice and athymic nude (Nu/Nu) BALB/c mice (weighing 20–25 g, 8 weeks old) were purchased from Nara Biotech (Seoul, Republic of Korea). PC3-PIP cells (1 × 10^7) were dispensed in 100 μL PBS, mixed with Matrigel, and subcutaneously implanted in the right thigh of male athymic nude (Nu/Nu) BALB/c mice. When the tumor reached 0.5–0.9 cm in diameter (2–3 weeks following implantation), biodistribution studies and PET imaging were performed.
# as §3
# [4] = Radiation-absorbed dose calculation (OLINDA/EXM) from normal mouse biodistribution; parameters: species or system human
# Method: The biodistribution results of normal BALB/c mice were used to evaluate the human radiation-absorbed dose. The internal absorbed doses of ^64Cu-cudotadipep and ^64Cu-cunotadipep were evaluated using the residence time and total amount of radioactivity in the target organ of the mice. The internal absorbed dose of the mice was converted to the human dose based on the Medical Internal Radiation Dose schema, using OLINDA/EXM version 1.1 software.
structure (smiles),measurement,setting,value
O=C([O-])CN1CCN(CC(=O)[O-])CCN(CC(=O)N[C@@H](CCCCNC(=O)CCCc2ccc(I)cc2)C(=O)NCCOCCOCC(=O)N(CCCC[C@H](NC(=O)N[C@@H](CCC(=O)O)C(=O)O)C(=O)O)CC(=O)O)CC1.[64Cu+2] [^64Cu-cunotadipep],cellular uptake,PC3-PIP (PSMA+) cells,6.02 ± 0.05%
same,cellular uptake,PC3-flu (PSMA−) cells,1.52 ± 0.03%
same,serum stability,[1],> 98%
same,serum stability,[2],> 98%
same,"Biodistribution, Blood",[3]; 2 h,9.51 ± 7.25 %ID/g
same,"Biodistribution, Bone",[3]; 2 h,1.07 ± 0.24 %ID/g
same,"Biodistribution, Brain",[3]; 2 h,0.26 ± 0.12 %ID/g
same,"Biodistribution, Fat",[3]; 2 h,1.20 ± 0.35 %ID/g
same,"Biodistribution, Heart",[3]; 2 h,3.17 ± 1.12 %ID/g
same,"Biodistribution, Intestine",[3]; 2 h,2.21 ± 0.35 %ID/g
same,"Biodistribution, Kidney",[3]; 2 h,53.28 ± 19.92 %ID/g
same,"Biodistribution, Liver",[3]; 2 h,4.38 ± 1.51 %ID/g
same,"Biodistribution, Lung",[3]; 2 h,5.48 ± 2.24 %ID/g
same,"Biodistribution, Muscle",[3]; 2 h,1.30 ± 0.42 %ID/g
same,"Biodistribution, Spleen",[3]; 2 h,5.07 ± 1.38 %ID/g
same,"Biodistribution, Stomach",[3]; 2 h,1.21 ± 0.49 %ID/g
same,"Biodistribution, Blood",[3]; 6 h,5.62 ± 0.95 %ID/g
same,"Biodistribution, Bone",[3]; 6 h,0.89 ± 0.22 %ID/g
same,"Biodistribution, Brain",[3]; 6 h,0.19 ± 0.02 %ID/g
same,"Biodistribution, Fat",[3]; 6 h,0.99 ± 0.27 %ID/g
same,"Biodistribution, Heart",[3]; 6 h,2.25 ± 0.33 %ID/g
same,"Biodistribution, Intestine",[3]; 6 h,1.69 ± 0.55 %ID/g
same,"Biodistribution, Kidney",[3]; 6 h,58.85 ± 6.00 %ID/g
same,"Biodistribution, Liver",[3]; 6 h,4.11 ± 0.53 %ID/g
same,"Biodistribution, Lung",[3]; 6 h,4.76 ± 0.51 %ID/g
same,"Biodistribution, Muscle",[3]; 6 h,1.05 ± 0.14 %ID/g
same,"Biodistribution, Spleen",[3]; 6 h,5.05 ± 1.56 %ID/g
same,"Biodistribution, Stomach",[3]; 6 h,0.92 ± 0.45 %ID/g
same,"Biodistribution, Blood",[3]; 24 h,1.39 ± 0.15 %ID/g
same,"Biodistribution, Bone",[3]; 24 h,0.60 ± 0.03 %ID/g
same,"Biodistribution, Brain",[3]; 24 h,0.13 ± 0.01 %ID/g
same,"Biodistribution, Fat",[3]; 24 h,0.63 ± 0.26 %ID/g
same,"Biodistribution, Heart",[3]; 24 h,1.22 ± 0.06 %ID/g
same,"Biodistribution, Intestine",[3]; 24 h,1.16 ± 0.24 %ID/g
same,"Biodistribution, Kidney",[3]; 24 h,37.40 ± 1.84 %ID/g
same,"Biodistribution, Liver",[3]; 24 h,5.32 ± 0.12 %ID/g
same,"Biodistribution, Lung",[3]; 24 h,2.53 ± 0.20 %ID/g
same,"Biodistribution, Muscle",[3]; 24 h,0.42 ± 0.05 %ID/g
same,"Biodistribution, Spleen",[3]; 24 h,2.56 ± 0.33 %ID/g
same,"Biodistribution, Stomach",[3]; 24 h,0.67 ± 0.22 %ID/g
same,"Biodistribution, Blood",[3]; 48 h,0.45 ± 0.15 %ID/g
same,"Biodistribution, Bone",[3]; 48 h,0.83 ± 0.10 %ID/g
same,"Biodistribution, Brain",[3]; 48 h,0.18 ± 0.01 %ID/g
same,"Biodistribution, Fat",[3]; 48 h,0.40 ± 0.10 %ID/g
same,"Biodistribution, Heart",[3]; 48 h,0.95 ± 0.07 %ID/g
same,"Biodistribution, Intestine",[3]; 48 h,0.56 ± 0.08 %ID/g
same,"Biodistribution, Kidney",[3]; 48 h,9.55 ± 2.33 %ID/g
same,"Biodistribution, Liver",[3]; 48 h,3.86 ± 0.31 %ID/g
same,"Biodistribution, Lung",[3]; 48 h,1.32 ± 0.13 %ID/g
same,"Biodistribution, Muscle",[3]; 48 h,0.45 ± 0.04 %ID/g
same,"Biodistribution, Spleen",[3]; 48 h,1.19 ± 0.11 %ID/g
same,"Biodistribution, Stomach",[3]; 48 h,0.44 ± 0.11 %ID/g
same,"Biodistribution, Blood",PC3-PIP tumor xenograft; 2 h,9.81 ± 3.47 %ID/g
same,"Biodistribution, Bone",PC3-PIP tumor xenograft; 2 h,5.71 ± 1.47 %ID/g
same,"Biodistribution, Fat",PC3-PIP tumor xenograft; 2 h,5.72 ± 5.53 %ID/g
same,"Biodistribution, Heart",PC3-PIP tumor xenograft; 2 h,4.56 ± 1.25 %ID/g
same,"Biodistribution, Intestine",PC3-PIP tumor xenograft; 2 h,2.97 ± 1.15 %ID/g
same,"Biodistribution, Kidney",PC3-PIP tumor xenograft; 2 h,65.02 ± 22.42 %ID/g
same,"Biodistribution, Liver",PC3-PIP tumor xenograft; 2 h,8.33 ± 2.29 %ID/g
same,"Biodistribution, Lung",PC3-PIP tumor xenograft; 2 h,7.72 ± 2.30 %ID/g
same,"Biodistribution, Muscle",PC3-PIP tumor xenograft; 2 h,2.14 ± 0.59 %ID/g
same,"Biodistribution, Spleen",PC3-PIP tumor xenograft; 2 h,8.58 ± 3.99 %ID/g
same,"Biodistribution, Stomach",PC3-PIP tumor xenograft; 2 h,2.50 ± 1.05 %ID/g
same,"Biodistribution, Tumor",PC3-PIP tumor xenograft; 2 h,22.61 ± 14.10 %ID/g
same,"Biodistribution, Blood",PC3-PIP tumor xenograft; 6 h,4.01 ± 0.94 %ID/g
same,"Biodistribution, Bone",PC3-PIP tumor xenograft; 6 h,1.81 ± 1.50 %ID/g
same,"Biodistribution, Fat",PC3-PIP tumor xenograft; 6 h,4.14 ± 1.33 %ID/g
same,"Biodistribution, Heart",PC3-PIP tumor xenograft; 6 h,2.59 ± 0.38 %ID/g
same,"Biodistribution, Intestine",PC3-PIP tumor xenograft; 6 h,2.74 ± 0.80 %ID/g
same,"Biodistribution, Kidney",PC3-PIP tumor xenograft; 6 h,91.48 ± 12.98 %ID/g
same,"Biodistribution, Liver",PC3-PIP tumor xenograft; 6 h,6.96 ± 1.00 %ID/g
same,"Biodistribution, Lung",PC3-PIP tumor xenograft; 6 h,5.75 ± 2.72 %ID/g
same,"Biodistribution, Muscle",PC3-PIP tumor xenograft; 6 h,1.44 ± 0.56 %ID/g
same,"Biodistribution, Spleen",PC3-PIP tumor xenograft; 6 h,6.63 ± 0.12 %ID/g
same,"Biodistribution, Stomach",PC3-PIP tumor xenograft; 6 h,1.42 ± 0.53 %ID/g
same,"Biodistribution, Tumor",PC3-PIP tumor xenograft; 6 h,35.14 ± 9.68 %ID/g
same,"Biodistribution, Blood",PC3-PIP tumor xenograft; 24 h,1.23 ± 0.38 %ID/g
same,"Biodistribution, Bone",PC3-PIP tumor xenograft; 24 h,2.81 ± 1.71 %ID/g
same,"Biodistribution, Fat",PC3-PIP tumor xenograft; 24 h,0.74 ± 0.20 %ID/g
same,"Biodistribution, Heart",PC3-PIP tumor xenograft; 24 h,1.64 ± 0.12 %ID/g
same,"Biodistribution, Intestine",PC3-PIP tumor xenograft; 24 h,2.38 ± 0.42 %ID/g
same,"Biodistribution, Kidney",PC3-PIP tumor xenograft; 24 h,50.29 ± 7.06 %ID/g
same,"Biodistribution, Liver",PC3-PIP tumor xenograft; 24 h,6.99 ± 0.45 %ID/g
same,"Biodistribution, Lung",PC3-PIP tumor xenograft; 24 h,4.58 ± 1.08 %ID/g
same,"Biodistribution, Muscle",PC3-PIP tumor xenograft; 24 h,0.41 ± 0.06 %ID/g
same,"Biodistribution, Spleen",PC3-PIP tumor xenograft; 24 h,2.79 ± 0.87 %ID/g
same,"Biodistribution, Stomach",PC3-PIP tumor xenograft; 24 h,1.27 ± 0.08 %ID/g
same,"Biodistribution, Tumor",PC3-PIP tumor xenograft; 24 h,37.13 ± 3.65 %ID/g
same,"Biodistribution, Blood",PC3-PIP tumor xenograft; 48 h,1.08 ± 0.27 %ID/g
same,"Biodistribution, Bone",PC3-PIP tumor xenograft; 48 h,3.42 ± 0.40 %ID/g
same,"Biodistribution, Fat",PC3-PIP tumor xenograft; 48 h,2.36 ± 1.25 %ID/g
same,"Biodistribution, Heart",PC3-PIP tumor xenograft; 48 h,1.91 ± 0.57 %ID/g
same,"Biodistribution, Intestine",PC3-PIP tumor xenograft; 48 h,1.54 ± 0.16 %ID/g
same,"Biodistribution, Kidney",PC3-PIP tumor xenograft; 48 h,52.07 ± 18.32 %ID/g
same,"Biodistribution, Liver",PC3-PIP tumor xenograft; 48 h,5.74 ± 1.83 %ID/g
same,"Biodistribution, Lung",PC3-PIP tumor xenograft; 48 h,3.64 ± 1.14 %ID/g
same,"Biodistribution, Muscle",PC3-PIP tumor xenograft; 48 h,0.80 ± 0.22 %ID/g
same,"Biodistribution, Spleen",PC3-PIP tumor xenograft; 48 h,3.56 ± 1.14 %ID/g
same,"Biodistribution, Stomach",PC3-PIP tumor xenograft; 48 h,1.14 ± 0.31 %ID/g
same,"Biodistribution, Tumor",PC3-PIP tumor xenograft; 48 h,28.84 ± 13.04 %ID/g
same,effective dose,"[4]; ICRP tissue-weighting factors, OLINDA/EXM, extrapolated from mouse biodistribution",3.00 × 10^−2 mSv/MBq
same,"estimated radiation-absorbed dose, kidneys","[4]; adult males, extrapolated from normal BALB/c mouse biodistribution",2.02 mGy/MBq
